# Results: article PMC10296347, “Identification of the Stapled α-Helical Peptide ATSP-7041 as a Substrate and Strong Inhibitor of OATP1B1 In Vitro” (Biomolecules, 2023)
# pIC50: −log10 of the molar value.
# Tests used:
# OATP1B1 [1] = target: T1, OATP1B1 (Homo sapiens, UniProt Q9Y6L6); assay: Uptake by OATP1B1-expressing HEK293 cells (substrate evaluation); conditions: E217βG 1 μM, 5 min, 37 °C
# T1 sequence (Q9Y6L6 1-691): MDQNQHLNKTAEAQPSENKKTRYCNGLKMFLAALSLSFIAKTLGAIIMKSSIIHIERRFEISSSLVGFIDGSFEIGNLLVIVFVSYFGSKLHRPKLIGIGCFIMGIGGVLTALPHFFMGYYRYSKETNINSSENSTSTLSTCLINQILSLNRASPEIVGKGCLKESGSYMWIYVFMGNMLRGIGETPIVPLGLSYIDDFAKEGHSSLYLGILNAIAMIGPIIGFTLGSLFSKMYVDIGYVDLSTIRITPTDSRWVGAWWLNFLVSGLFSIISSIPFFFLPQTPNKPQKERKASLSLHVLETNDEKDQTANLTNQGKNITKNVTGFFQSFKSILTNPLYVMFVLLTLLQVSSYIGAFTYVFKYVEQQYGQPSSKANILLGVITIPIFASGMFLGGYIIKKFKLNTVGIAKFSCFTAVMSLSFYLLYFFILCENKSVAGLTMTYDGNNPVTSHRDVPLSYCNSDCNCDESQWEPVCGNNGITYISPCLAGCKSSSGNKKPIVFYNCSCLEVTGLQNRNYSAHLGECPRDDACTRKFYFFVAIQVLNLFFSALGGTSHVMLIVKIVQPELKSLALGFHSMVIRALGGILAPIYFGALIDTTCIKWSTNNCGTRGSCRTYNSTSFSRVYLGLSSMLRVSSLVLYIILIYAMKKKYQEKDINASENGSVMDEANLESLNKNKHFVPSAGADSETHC
# Protocol: (§1) The evaluation of ATSP-7041 as a substrate for OATP1B1 was performed using OATP1B1-expressing HEK293 cells in 24- or 96-well plates according to the manufacturer’s protocol (v1.9 for OATP1B1) with minor modifications. In brief, after equilibration with the transport buffer, the buffer was replaced with a fresh transport buffer containing the indicated concentrations of ATSP-7041 or 1 μM E217βG in the presence or absence of positive control inhibitors (50 μM rifampicin or 10 μM cyclosporine). After incubation for the indicated time at 37 °C, the cells were immediately rinsed twice with an ice-cold transport buffer. Substrates were extracted by incubation with 400 μL (for 24-well) or 100 μL (for 96-well) of 0.1% formic acid in acetonitrile-containing internal standard (IS) (0.125 μM benzyl-ATSP-7041 for ATSP-7041 in uptake experiment of various concentrations of ATSP-7041 or 0.0125 μM for ATSP-7041 in all other experiments of benzyl-ATSP-7041 and 0.1 μM estradiol-3β-glucuronide) for 5 min at 20–25 °C, filtered using a PVDF-based filter, diluted 1.4 times (ATSP-7041) or 2 times (E217βG) with water, and analyzed using LC/MS.
# LC/MS analysis data were quantified using Trace Finder 4.1 (Thermo Fisher Scientific, Waltham, MA, USA) for peak detection and area quantification. […] Differences in all figures were analyzed and all data were plotted using GraphPad Prism 9 (GraphPad Software). […]
# OATP1B3 = target: T2, OATP1B3 (Homo sapiens, UniProt Q9NPD5); assay: Uptake by OATP1B3-expressing HEK293 cells (substrate evaluation); conditions: E217βG 3 μM, 5 min, 37 °C
# T2 sequence (Q9NPD5 1-702): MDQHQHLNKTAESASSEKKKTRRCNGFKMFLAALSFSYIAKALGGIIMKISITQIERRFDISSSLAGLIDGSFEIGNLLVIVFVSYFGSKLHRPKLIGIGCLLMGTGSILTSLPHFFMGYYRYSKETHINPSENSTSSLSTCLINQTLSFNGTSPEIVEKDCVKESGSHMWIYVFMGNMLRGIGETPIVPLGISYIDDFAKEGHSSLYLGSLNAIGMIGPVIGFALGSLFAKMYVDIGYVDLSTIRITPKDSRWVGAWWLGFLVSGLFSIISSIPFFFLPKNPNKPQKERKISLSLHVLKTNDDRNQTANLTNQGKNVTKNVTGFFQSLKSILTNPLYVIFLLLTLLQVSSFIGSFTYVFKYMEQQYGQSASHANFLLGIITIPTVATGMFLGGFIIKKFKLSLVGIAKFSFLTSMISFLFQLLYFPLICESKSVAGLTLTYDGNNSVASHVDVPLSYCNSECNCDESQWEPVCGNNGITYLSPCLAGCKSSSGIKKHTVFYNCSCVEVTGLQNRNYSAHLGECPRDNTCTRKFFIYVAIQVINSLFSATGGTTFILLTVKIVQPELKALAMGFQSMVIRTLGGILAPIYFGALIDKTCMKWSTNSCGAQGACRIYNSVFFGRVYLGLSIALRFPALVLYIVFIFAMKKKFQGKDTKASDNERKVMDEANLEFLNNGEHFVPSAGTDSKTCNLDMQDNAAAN
# Protocol: after the time course assessment (0, 5, 10, 20, 30, 40, and 60 min). Similarly, the inhibitory […]
# measuring testosterone and 6β-hydroxytestosterone at 90 min, after the time course assessment (0, 10, 20, 40, 60, 90, and 120 min). Other human liver S9 (B, C, and D) fractions were also used to evaluate vendor differences. Midazolam, 1ʹ-hydroxymidazolam, testosterone, and 6β-hydroxytestosterone were detected using LC/MS.
# 4. Evaluation of ATSP-7041 as a substrate of transporters
# The evaluation of ATSP-7041 as a substrate for OATP1B1 and OATP1B3 transporters was performed using OATP1B-expressing HEK293 cells in 24-well plates according to the manufacturer’s protocol (v1.9 for OATP1B1 and v2.0 for OATP1B3) with minor modifications.
# In brief, after equilibration with the transport buffer, the buffer was replaced with a fresh transport buffer containing ATSP-7041 (0.2 μM) or E217βG (1 μM for OATP1B1 or 3 μM for OATP1B3). After incubation for 5 min at 37 °C, the cells were immediately rinsed twice with ice-cold transport buffer. Substrates were extracted by incubation with 400 μL of 0.1% formic acid in acetonitrile containing IS (0.0125 μM benzyl-ATSP-7041 and 0.1 μM estradiol-3β-glucuronide) for 5 min at 20-25 °C, filtered using a PVDF-based filter, diluted 1.4 times (ATSP-7041) or 2 times (E217βG) with water, and analyzed by LC/MS. […]
# BCRP = target: T3, BCRP (Homo sapiens, UniProt Q9UNQ0); assay: ATP-dependent uptake by inside-out membrane vesicles expressing BCRP; conditions: Lucifer yellow 50 μM
# T3 sequence (Q9UNQ0 1-655): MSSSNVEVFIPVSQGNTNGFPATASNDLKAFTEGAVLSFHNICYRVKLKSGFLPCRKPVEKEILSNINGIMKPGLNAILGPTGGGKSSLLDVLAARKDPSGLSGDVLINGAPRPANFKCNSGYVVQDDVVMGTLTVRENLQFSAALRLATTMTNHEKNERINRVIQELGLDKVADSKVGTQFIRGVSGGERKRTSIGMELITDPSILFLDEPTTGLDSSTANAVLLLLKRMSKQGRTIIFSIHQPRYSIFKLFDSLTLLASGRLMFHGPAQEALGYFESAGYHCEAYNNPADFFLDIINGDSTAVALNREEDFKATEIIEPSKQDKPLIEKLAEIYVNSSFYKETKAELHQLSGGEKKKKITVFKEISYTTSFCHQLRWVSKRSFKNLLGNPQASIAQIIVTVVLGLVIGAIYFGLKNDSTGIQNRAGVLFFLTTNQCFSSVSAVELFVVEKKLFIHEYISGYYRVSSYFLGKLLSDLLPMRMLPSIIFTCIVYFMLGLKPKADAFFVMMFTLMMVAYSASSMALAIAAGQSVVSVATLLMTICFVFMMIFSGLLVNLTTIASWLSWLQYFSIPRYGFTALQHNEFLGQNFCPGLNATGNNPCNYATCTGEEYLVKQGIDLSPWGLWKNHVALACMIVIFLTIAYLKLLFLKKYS
# P-gp = P-gp (Homo sapiens, UniProt P08183); assay: ATP-dependent uptake by inside-out membrane vesicles expressing P-gp; conditions: NMQ 2 μM
# OATP1B1 [2] = target: T1, OATP1B1
# Protocol: as §1
# in vitro = conditions: human, s9, pH 7.4
# OATP1B1 [3] = target: T1, OATP1B1; remark: listed apart in the source
# Protocol: The inhibitory activities of ATSP-7041 on OATP1B1 were evaluated using OATP1B-expressing HEK293 cells in 96-well plates as described above. For dose-dependent inhibition, ATSP-7041 at the indicated concentrations was added to the transport buffer, and E217βG was used as the substrate. To study the pre-incubation effect, the cells were pre-incubated with 10 μM ATSP-7041 or 10 μM cyclosporine in transport buffer after equilibration with the transport buffer for 30 min at 37 °C and washed twice before the replacement of the transport buffer containing E217βG.
# LC/MS analysis data were quantified using Trace Finder 4.1 (Thermo Fisher Scientific, Waltham, MA, USA) for peak detection and area quantification. To study the transport activities of OATP1B1, the OATP1B1-mediated uptake of ATSP-7041 and E217βG was determined by normalization with IS (divide the area of ion peak) and subsequent background-corrected uptake using mock cells. To evaluate the inhibitory activities of ATSP-7041 on OATP1B1, transporter activities were determined as a percent of the control (activities without ATSP-7041) at each concentration, and the half maximal inhibitory concentration (IC50) for the inhibition of OATP1B1 activity by ATSP-7041 was determined by fitting a curve (inhibitor concentrations vs. normalized response) using GraphPad Prism 8 (GraphPad Software, San Diego, CA, USA). […]
# Chain of P-gp (P08183 whole entry): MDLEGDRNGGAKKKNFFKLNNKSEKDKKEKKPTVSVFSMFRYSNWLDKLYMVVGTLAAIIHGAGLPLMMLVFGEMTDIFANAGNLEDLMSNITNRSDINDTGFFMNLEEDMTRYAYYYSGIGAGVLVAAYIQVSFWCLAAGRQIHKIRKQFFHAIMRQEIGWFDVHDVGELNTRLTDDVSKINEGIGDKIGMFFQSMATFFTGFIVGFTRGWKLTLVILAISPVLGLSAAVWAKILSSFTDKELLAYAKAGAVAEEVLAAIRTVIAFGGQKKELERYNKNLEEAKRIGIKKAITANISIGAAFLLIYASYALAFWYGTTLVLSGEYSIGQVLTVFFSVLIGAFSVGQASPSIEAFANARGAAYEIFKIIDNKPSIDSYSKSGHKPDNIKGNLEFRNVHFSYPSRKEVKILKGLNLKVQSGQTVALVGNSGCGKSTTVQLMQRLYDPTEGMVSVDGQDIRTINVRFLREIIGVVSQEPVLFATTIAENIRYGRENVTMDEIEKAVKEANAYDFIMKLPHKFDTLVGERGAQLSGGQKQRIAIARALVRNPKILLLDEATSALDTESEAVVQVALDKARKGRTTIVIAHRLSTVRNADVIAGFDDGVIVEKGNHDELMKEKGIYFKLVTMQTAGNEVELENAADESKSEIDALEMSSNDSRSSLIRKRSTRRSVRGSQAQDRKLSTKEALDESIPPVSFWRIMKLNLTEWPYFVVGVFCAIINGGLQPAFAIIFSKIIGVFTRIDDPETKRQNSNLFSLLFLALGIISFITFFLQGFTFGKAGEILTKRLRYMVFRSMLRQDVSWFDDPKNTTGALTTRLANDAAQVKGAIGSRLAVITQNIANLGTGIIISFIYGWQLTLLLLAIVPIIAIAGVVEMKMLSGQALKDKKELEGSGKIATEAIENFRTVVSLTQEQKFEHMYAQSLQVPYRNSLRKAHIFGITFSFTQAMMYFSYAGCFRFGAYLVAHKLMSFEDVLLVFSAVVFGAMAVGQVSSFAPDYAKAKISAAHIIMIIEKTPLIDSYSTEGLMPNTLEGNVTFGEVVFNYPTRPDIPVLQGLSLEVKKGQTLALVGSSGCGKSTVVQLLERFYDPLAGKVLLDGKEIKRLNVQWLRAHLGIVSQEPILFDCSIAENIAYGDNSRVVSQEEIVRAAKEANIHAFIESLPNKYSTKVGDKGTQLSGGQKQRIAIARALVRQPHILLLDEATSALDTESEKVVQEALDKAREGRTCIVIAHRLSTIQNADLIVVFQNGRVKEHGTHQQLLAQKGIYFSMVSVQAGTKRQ
compound,measurement,setting,value
"C[C@]12CC[C@@H]3c4ccc(O)cc4CC[C@H]3[C@@H]1CC[C@@H]2O[C@@H]1O[C@H](C(=O)O)[C@@H](O)[C@H](O)[C@H]1O [E217βG, Estradiol-17β-glucuronide]",uptake of control substrate in OATP1B1-transfected HEK293 cells relative to mock cells,OATP1B1 [1],approximately 611 fold
same,uptake of control substrate in OATP1B3-transfected HEK293 cells relative to mock cells,OATP1B3,~137 fold
Lucifer yellow,ATP-dependent uptake of positive control substrate by BCRP compared to mock vesicles,BCRP,clearly observed
"C=C[C@H]1C[N+]2(C)CC[C@H]1C[C@@H]2[C@@H](O)c1ccnc2ccc(OC)cc12 [NMQ, N-methyl-quinidine]",ATP-dependent uptake of positive control substrate by P-gp compared to mock vesicles,P-gp,clearly observed
CO[C@H]1/C=C/O[C@@]2(C)Oc3c(C)c(O)c4c(O)c(c(/C=N/N5CCN(C)CC5)c(O)c4c3C2=O)NC(=O)/C(C)=C\C=C\[C@H](C)[C@H](O)[C@@H](C)[C@@H](O)[C@@H](C)[C@H](OC(C)=O)[C@@H]1C [rifampicin],"uptake of control substrate E217βG by OATP1B1-expressing HEK293 cells with inhibitor, % of without inhibitor","OATP1B1 [2]; rifampicin 50 μM, E217βG 1 μM, 5 min co-incubation",< 4%
same,effect of index inhibitors on OATP1B1-dependent uptake of ATSP-7041,"OATP1B1 [2]; substrate ATSP-7041 0.2 μM, rifampicin 50 μM or cyclosporine 10 μM, 5 and 60 min, 37 °C",significantly inhibited
CC(=O)N[C@@H](CC(C)C)C(=O)N[C@H](C(=O)N[C@@H](Cc1ccccc1)C(=O)N[C@]1(C)CCCCCCC=CCCC[C@@](C)(C(=O)N[C@@H](CO)C(=O)N[C@@H](C)C(=O)N[C@@H](C)C(N)=O)NC(=O)[C@H](CC2CCC2)NC(=O)[C@H](CCC(N)=O)NC(=O)[C@H](C)NC(=O)[C@H](Cc2c[nH]c3ccccc23)NC(=O)[C@H](Cc2ccc(O)cc2)NC(=O)[C@H](CCC(=O)O)NC1=O)[C@@H](C)O [ATSP-7041],"remaining at 24 h, 0.5 μM",in vitro,91.6%
same,pIC50,OATP1B1 [3],6.09
same,inhibition at 10 µM,OATP1B1 [3],> 96%
